We go through 1 compound from patent US4626526A, “(S)-N^6 -2-hydroxypropyladenosines” (Warner-Lambert Company, priority 1984, dated 1986).

In one test the target is T1, adenosine A1 receptor (Rattus norvegicus, UniProt P25099).
T1 construct: Whole brain minus cerebellum and brainstem from male Long Evans rats; from tissue; host or cells: whole brain minus cerebellum and brainstem, male Long Evans rats, membranes
T1 sequence (P25099 1-326): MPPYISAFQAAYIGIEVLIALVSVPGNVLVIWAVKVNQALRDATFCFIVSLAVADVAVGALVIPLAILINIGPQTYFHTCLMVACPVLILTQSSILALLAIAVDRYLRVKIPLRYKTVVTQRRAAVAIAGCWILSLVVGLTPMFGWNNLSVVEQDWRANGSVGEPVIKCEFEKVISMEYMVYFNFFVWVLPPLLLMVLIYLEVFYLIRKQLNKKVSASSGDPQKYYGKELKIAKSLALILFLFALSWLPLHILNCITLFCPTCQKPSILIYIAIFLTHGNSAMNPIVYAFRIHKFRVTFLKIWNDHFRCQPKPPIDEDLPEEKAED
The experiment in a line: Adenosine Receptor Binding, A1 Receptor Affinity (RBA1), [3H]-CHA. As to conditions: rat brain membranes, 1.0 nM [3H]-CHA. The protocol: Whole brain minus cerebellum and brainstem from male Long Evans rats (150-200 g) was homogenized in 30 volumes of ice-cold 0.05M Tris-HCl buffer pH 7.7 using a Brinkman Polytron PT-10, (setting number 6 for 20 seconds) and centrifuged for ten minutes at 20,000 × g (Sorvall RC-2), 4° C. The supernatant was discarded, and the pellet was resuspended and centrifuged as before. The pellet was resuspended in 20 ml Tris-HCl buffer containing two International Units/ml of adenosine deaminase (Sigma type III from calf intestinal mucosa), incubated at 37° C. for 30 minutes, then subsequently at 0° C. for ten minutes. […]
Tissue homogenate (10 mg/ml) was incubated in 0.05M Tris-HCl buffer pH 7.7 containing 1.0 nM [^3 H]-N^6 -cyclohexyladenosine (^3 H]-CHA) with or without test agents in triplicate for one hour at 25° C. […] The radio-labeled ligand retained on the filter was measured by liquid scintillation spectrophotometry after shaking the filters for one hour or longer on a mechanical shaker in 10 ml of Beckman Ready-Solv HP scintillation cocktail.
Nonspecific binding was defined as the binding which occurred in the presence of 1 mM theophylline. […] The Scatchard plot was calculated by linear regression of the line obtained by plotting the amount of radioligand bound (pmoles/gram of tissue) versus [formula] […] The maximal number of binding sites (Bmax) was calculated from the Scatchard plot.

Another test deals with T2, adenosine A2 receptor (Rattus norvegicus, UniProt P30543).
T2 construct: 5 mg original tissue weight of rat weight of rat striatal membranes; tissue Pel-Freez (Rogers, Arkansas); host or cells: rat brain striatum membranes (Sprague-Dawley; Long-Evans hooded rats gave essentially identical results)
Briefly: Adenosine Receptor Binding, A2 Receptor Affinity (RBA2), [3H]NECA, rat striatal membranes. The settings on record: 4 nM [3H]NECA, 50 nM N6-cyclopentyladenosine. The protocol: Brains from 200-500 g mixed sex Sprague-Dawley rats were purchased from Pel-Freez (Rogers, Arkansas). Fresh brains from male Long-Evans hooded rats (Blue Spruce Farms, Altamont, NY) gave essentially identical results. Brains were thawed and then kept on ice while the striata were dissected out. Striata were disrupted in 10 vol of ice-cold 50 mM Tris.HCl (pH 7.7 at 25° C., pH 8.26 at 5° C.) (Tris) for 30 seconds in a Polytron PT-10 (Brinkmann) at setting 5. The suspension was centrifuged at 50,000 xg for ten minutes, the supernatant discarded, the pellet resuspended in 10 vol ice-cold Tris as above, recentrifuged, resuspended at 1 g/5 ml, and stored in plastic vials at -70° C. (stable for at least six months). When needed, tissue was thawed at room temperature, disrupted in a Polytron, and kept on ice until used. […]
Incubations were terminated by filtration through 2.4 cm GF/B filters under reduced pressure. […] Filters were put in scintillation vials, 8 ml of Formula 947 scintillation fluid added, and the vials left overnight, shaken, and counted in a liquid scintillation counter at 40% efficiency.
Nonspecific binding was defined as binding in the presence of 100 μM N^6 -cyclopentyladenosine, and specific binding was defined as total binding minus nonspecific binding. The IC50 was calculated by weighted nonlinear least squares curve-fitting to the mass-action equation. […]

T2 sequence (P30543 whole entry): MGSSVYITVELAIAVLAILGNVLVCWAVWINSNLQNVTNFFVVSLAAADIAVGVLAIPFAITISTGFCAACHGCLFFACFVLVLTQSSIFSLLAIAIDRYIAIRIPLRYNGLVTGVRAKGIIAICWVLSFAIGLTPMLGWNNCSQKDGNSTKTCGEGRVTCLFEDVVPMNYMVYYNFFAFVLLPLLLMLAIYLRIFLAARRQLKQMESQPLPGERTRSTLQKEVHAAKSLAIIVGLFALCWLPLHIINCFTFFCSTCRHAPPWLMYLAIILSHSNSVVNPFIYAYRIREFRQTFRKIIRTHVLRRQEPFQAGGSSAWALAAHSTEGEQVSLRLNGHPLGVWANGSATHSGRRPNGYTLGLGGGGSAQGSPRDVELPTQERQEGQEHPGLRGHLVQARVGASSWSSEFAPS

In the case of `C[C@H](O)CNc1ncnc2c1ncn2[C@@H]1O[C@H](CO)[C@@H](O)[C@H]1O` [N^6-[(S)-2-hydroxypropyl]adenosine, N^6-[(S)-2-Hydroxypropyl]adenosine], the values for the IC50 at adenosine A1 receptor and on adenosine A2 receptor were 0.006 µM and 14 µM, respectively.
